Source: patent publication US7265129B2, “Anti-infective biaryl compounds” (priority 2002, dated 2007)

Key:
[1] = test system: S. aureus ATCC 33591; assay: MIC, NCCLS broth microdilution, S. aureus ATCC 33591; format: cell-based, Staphylococcus aureus
Text: (§1) It vitro biological activity data were collected for a variety of microorganisms, including Bacillus cereus (ATCC 11778), Staphylococcus aureus (ATCC 33591; ATCC 27660, a methicillin resistant strain (MRSA); ATCC 13709, a methicillin sensitive strain (MSSA)), Enterococcus faecalis (ATCC 29212), and Streptococcus pneumoniae (ATCC 49619). Additionally, antifungal activity data were collected for Candida albicans (ATCC 38247).
(§2) Compounds according to this invention were screened for their in vitro activities against selected species of bacteria and fungi. The minimal inhibition concentration (MIC) of these compounds was determined using the National Committee for Clinical Laboratory Standards (NCCLS) broth microdilution assay in microtiter plates, as set forth in: (1) the guidelines of the National Committee for Clinical Laboratory Standards (NCCLS) Document M7-A4 (NCCLS, 1997); (2) the guidelines of the National Committee for Clinical Laboratory Standards (NCCLS) Document M11-A4 (NCCLS, 1997); and (3) the guidelines and reference method of the National Committee for Clinical Laboratory Standards (NCCLS) Document M27-T (NCCLS, 1995). For antifungal assays, the method recommended in Murray, P R., 1995 Manual of Clinical Microbiology (ASM Press, Washington, D.C.), was employed.

[2] = test system: S. aureus ATCC 13709; assay: MIC, NCCLS broth microdilution, S. aureus MSSA; format: cell-based, Staphylococcus aureus; conditions: S. aureus ATCC 13709, methicillin sensitive strain (MSSA)
Text: as §1, §2

[3] = test system: C. albicans ATCC 38247; assay: MIC, antifungal assay, C. albicans; format: cell-based, Candida albicans
Text: as §1, §2

[4] = test system: S. pneumoniae ATCC 49619; assay: MIC, NCCLS broth microdilution, S. pneumoniae; format: cell-based, Streptococcus pneumoniae
Text: as §1, §2

[5] = test system: B. cereus ATCC 11778; assay: MIC, NCCLS broth microdilution, B. cereus; format: cell-based, Bacillus cereus
Text: as §1, §2

[6] = test system: S. aureus ATCC 27660; assay: MIC, NCCLS broth microdilution, S. aureus MRSA; format: cell-based, Staphylococcus aureus; conditions: S. aureus ATCC 27660, methicillin resistant strain (MRSA)
Text: as §1, §2

[7] = test system: E. faecalis ATCC 29212; assay: MIC, NCCLS broth microdilution, E. faecalis; format: cell-based, Enterococcus faecalis
Text: as §1, §2

| Compound | Minimum Inhibitory Concentration (MIC), organism F [1] | Minimum Inhibitory Concentration (MIC), organism D [2] | Minimum Inhibitory Concentration (MIC), organism B [3] | Minimum Inhibitory Concentration (MIC), organism G [4] | Minimum Inhibitory Concentration (MIC), organism A [5] | Minimum Inhibitory Concentration (MIC), organism E [6] | Minimum Inhibitory Concentration (MIC), organism C [7] |
| --- | --- | --- | --- | --- | --- | --- | --- |
| Cn1cc(NC(=O)c2cc3ccccc3cn2)cc1C(=O)Nc1cc(-c2nc3ccc(OC(=O)CCN4CCOCC4)cc3[nH]2)n(C)c1 [Compound A-9] | +++ (MIC ≦ 4 μg/mL) | +++ (MIC ≦ 4 μg/mL) | >32 µg/mL | +++ (MIC ≦ 4 μg/mL) | +++ (MIC ≦ 4 μg/mL) | +++ (MIC ≦ 4 μg/mL) | +++ (MIC ≦ 4 μg/mL) |
| Cn1cc(NC(=O)c2cc(NC(=O)c3ccc(Cl)cc3F)cn2CCCN2CCCCC2)cc1-c1nc2ccccc2[nH]1 [Compound A-32] | +++ (MIC ≦ 4 μg/mL) | +++ (MIC ≦ 4 μg/mL) | + (12 ≦ MIC ≦ 32 μg/mL) | +++ (MIC ≦ 4 μg/mL) | +++ (MIC ≦ 4 μg/mL) | +++ (MIC ≦ 4 μg/mL) | +++ (MIC ≦ 4 μg/mL) |
| CN(C)CCCn1cc(NC(=O)c2cc3ccccc3cn2)cc1C(=O)Nc1cc(-c2nc3ncccc3[nH]2)n(C)c1 [Compound A-12] | +++ (MIC ≦ 4 μg/mL) | +++ (MIC ≦ 4 μg/mL) | >32 µg/mL | +++ (MIC ≦ 4 μg/mL) | +++ (MIC ≦ 4 μg/mL) | +++ (MIC ≦ 4 μg/mL) | +++ (MIC ≦ 4 μg/mL) |
| CN(C)CCCn1cc(NC(=O)c2ccc(Cl)cc2F)cc1C(=O)Nc1cc(-c2nc3cccnc3[nH]2)n(C)c1 [Compound A-39] | +++ (MIC ≦ 4 μg/mL) | +++ (MIC ≦ 4 μg/mL) | + (12 ≦ MIC ≦ 32 μg/mL) | +++ (MIC ≦ 4 μg/mL) | +++ (MIC ≦ 4 μg/mL) | +++ (MIC ≦ 4 μg/mL) | +++ (MIC ≦ 4 μg/mL) |
| Cn1cc(NC(=O)c2cc(NC(=O)c3ccc(Cl)cc3F)cn2CCCN2CCSCC2)cc1-c1nc2ccccc2[nH]1 [Compound A-33] | +++ (MIC ≦ 4 μg/mL) | +++ (MIC ≦ 4 μg/mL) | >32 µg/mL | +++ (MIC ≦ 4 μg/mL) | +++ (MIC ≦ 4 μg/mL) | +++ (MIC ≦ 4 μg/mL) | +++ (MIC ≦ 4 μg/mL) |
| Cn1cc(NC(=O)c2cc3ccccc3cn2)cc1C(=O)Nc1cc(-c2nc3ccc(N)cc3[nH]2)n(C)c1 [Compound A-8] | +++ (MIC ≦ 4 μg/mL) | +++ (MIC ≦ 4 μg/mL) | >32 µg/mL | +++ (MIC ≦ 4 μg/mL) | ++ (4 < MIC < 12 μg/mL) | +++ (MIC ≦ 4 μg/mL) | +++ (MIC ≦ 4 μg/mL) |
| Cn1cc(NC(=O)c2cc(NC(=O)c3ccc(Cl)cc3F)cn2CCCN(CCO)CCO)cc1-c1nc2ccccc2[nH]1 [Compound A-36] | +++ (MIC ≦ 4 μg/mL) | ++ (4 < MIC < 12 μg/mL) | + (12 ≦ MIC ≦ 32 μg/mL) | +++ (MIC ≦ 4 μg/mL) | ++ (4 < MIC < 12 μg/mL) | +++ (MIC ≦ 4 μg/mL) | +++ (MIC ≦ 4 μg/mL) |
| CC1CCN(CCCn2cc(NC(=O)c3ccc(Cl)cc3F)cc2C(=O)Nc2cc(-c3nc4cccnc4[nH]3)n(C)c2)CC1 [Compound A-41] | +++ (MIC ≦ 4 μg/mL) | +++ (MIC ≦ 4 μg/mL) | >32 µg/mL | +++ (MIC ≦ 4 μg/mL) | +++ (MIC ≦ 4 μg/mL) | +++ (MIC ≦ 4 μg/mL) | +++ (MIC ≦ 4 μg/mL) |
| CN(C)CCCn1cc(NC(=O)c2cc3ccccc3cn2)cc1C(=O)Nc1cc(-c2nc3ccncc3[nH]2)n(C)c1 [Compound A-13] | +++ (MIC ≦ 4 μg/mL) | +++ (MIC ≦ 4 μg/mL) | >32 µg/mL | +++ (MIC ≦ 4 μg/mL) | +++ (MIC ≦ 4 μg/mL) | +++ (MIC ≦ 4 μg/mL) | +++ (MIC ≦ 4 μg/mL) |
| Cn1cc(NC(=O)c2cc(NC(=O)c3sccc3Cl)cn2CCC[n+]2ccccc2)cc1-c1nc2ccccc2[nH]1 [Compound A-56] | + (12 ≦ MIC ≦ 32 μg/mL) | + (12 ≦ MIC ≦ 32 μg/mL) | >32 µg/mL | >32 µg/mL | >32 µg/mL | + (12 ≦ MIC ≦ 32 μg/mL) | >32 µg/mL |
| Cn1cc(NC(=O)c2cc3ccccc3cn2)cc1C(=O)Nc1cc(-c2nc3cc(O)ccc3[nH]2)n(C)c1 [Compound A-6] | +++ (MIC ≦ 4 μg/mL) | +++ (MIC ≦ 4 μg/mL) | >32 µg/mL | +++ (MIC ≦ 4 μg/mL) | +++ (MIC ≦ 4 μg/mL) | +++ (MIC ≦ 4 μg/mL) | +++ (MIC ≦ 4 μg/mL) |
| Cn1cc(NC(=O)c2cc(NC(=O)c3sc4ccccc4c3Cl)cn2CCC[n+]2ccccc2)cc1-c1nc2ccccc2[nH]1 [Compound A-27] | ++ (4 < MIC < 12 μg/mL) | ++ (4 < MIC < 12 μg/mL) | + (12 ≦ MIC ≦ 32 μg/mL) | + (12 ≦ MIC ≦ 32 μg/mL) | + (12 ≦ MIC ≦ 32 μg/mL) | ++ (4 < MIC < 12 μg/mL) | + (12 ≦ MIC ≦ 32 μg/mL) |
| Cn1cc(NC(=O)c2cc3ccccc3cn2)cc1C(=O)Nc1cc(-c2nc3ccc(OCCN4CCOCC4)cc3[nH]2)n(C)c1 [Compound A-10] | +++ (MIC ≦ 4 μg/mL) | +++ (MIC ≦ 4 μg/mL) | >32 µg/mL | +++ (MIC ≦ 4 μg/mL) | +++ (MIC ≦ 4 μg/mL) | +++ (MIC ≦ 4 μg/mL) | +++ (MIC ≦ 4 μg/mL) |
